# Results taken from US20060189535A1, “Combination treatment using exendins and thiazolidinediones” (priority 2002, published 2006).
# Experiments:
# male ZDF rat = assay: Four weeks combination treatment of overtly diabetic male ZDF rats; HbA1c and 24-hour glucose profiles; type: in vivo; settings: thiazolidinedione insulin sensitizer x mg/kg oral once daily + Exendin-4(1-39) xx μg/kg s.c. twice daily
# Method: Synergistic effect of combining thiazolidinedione insulin sensitizer and exendin-4(1-39) on glucose and HbA1c, (glycosylated hemoglobin) in the male ZDF rat.
# Male ZDF rats were used in the study. Before treatment start, measurements of glucose and HbA1c were performed. All animals were overtly diabetic at the beginning of the study. Animals were allocated into the following 4 treatment groups: • Group 1: Vehicle-1+Vehicle-2 • Group 2: thiazolidinedione insulin sensitizer, x mg/kg+Vehicle-2 (n=10) • Group 3: Vehicle-1+exendin-4(1-39), xx μg/kg • Group 4: thiazolidinedione insulin sensitizer, x mg/kg+exendin-4(1-39), xx μtg/kg
# Thiazolidinedione insulin sensitizer and Vehicle-1 were administered by oral gavage once daily at approx. 07:30. Exendin-4(1-39) and Vehicle-2 were administered subcutaneously twice daily at approx. 07:30 and 14:30.
# After four weeks treatment, HbA1c was measured and 24-hour glucose profiles were assessed.
# The findings of group 1, 2, 3 and 4 are listed. Delta HbA1c values referring to the numerical difference between the measurement after treatment and the measurement before treatment are calculated. Glucose24 hAUc refers to the total area under the glucose concentration curve during the 24-hour period. A two-way analysis of variance are performed for each parameter and the significance of the interaction term evaluated.
# dogs = settings: injected into dogs; cited from earlier work
substance,measurement,setting,value
Exendin-4(1-39),"effect on 24-hour glucose profiles (Glucose 24h AUC, two-way ANOVA interaction term)",male ZDF rat,synergistic (greater than additive) effects
same,"effect on HbA1c (delta HbA1c, two-way ANOVA interaction term)",male ZDF rat,synergistic (greater than additive) effects
same,insulin release and blood glucose level,dogs,stimulate insulin release and ensuing lowering of the blood glucose level
